Laboratory results taken from patent US6420425B1, “Method for the broad based treatment of infections especially infections of organs such as the skin and vagina” (priority 1997, dated 2002).

Columns and labels:
Candida albicans [1] = details: microtiter broth, 25° C., 3-5 days
Protocol: (§1) The susceptibility of selected pathogens to individual and mixtures of acetic and boric acid was investigated, in vitro. Fresh isolates of Staphylococcus intermedius, Pseudomonas aeruginosa, Candida albicans, Microsporum canis and Malassezia pachydermatis were obtained from VHUP Clinical Veterinary Microbiology Laboratory. Staphylococcus and Pseudomonas were grown on Mueller-Hinton (M-H) broth overnight at approximately 37° C. and fungi were inoculated into Sabourauds Antibiotic broth medium and incubated at 25° C. for 4 days. Stock dilutions (2x) of both boric acid and acetic acid were prepared in M-H broth (for bacteria studies) or in Sabourauds Antibiotic Broth (for fungal studies). These concentrations were 1.0%, 4.0%, 7.5% and 10.0%. The stock solutions were used to prepare the full spectrum of all possible combinations of acetic and boric acids in 96 well microtiter plates. All wells were raised to a final volume of 100 ul as required. The organisms were diluted to an approximate concentration of 10^5 cfu and 10 ul of this preparation was inolculated into each well with an 8 channel micropipeter. The microtiter plates containing the bacteria were incubated at 35.5° C. for 18 to 24 hours. The plates containing the fungi were incubated at 25° C. for 3-5 days. The presence of the growth in the wells was recorded. These values determine the Minimum Inhibitory Concentration (MIC) of the acids at individual and mixed concentrations.

Pseudomonas aeruginosa = details: microtiter broth, 35.5° C., 18 to 24 hours
Protocol: as §1

[2] = tested on: Staphylococcus intermedius; details: microtiter broth, 35.5° C., 18 to 24 hours
Protocol: as §1

Candida albicans [3] = details: in vitro; cited from earlier work
vulvovaginal candidiasis = details: in vivo; cited from earlier work
fungi causing otomycosis = details: in vitro, five fungi; cited from earlier work

Row | Structure (SMILES) | growth inhibition (Candida albicans [1]) | growth inhibition (Pseudomonas aeruginosa) | growth inhibition [2] | activity against Candida albicans (Candida albicans [3]) | efficacy in treating vulvovaginal candidiasis (vulvovaginal candidiasis) | fungitoxic effect (fungi causing otomycosis)
1 | OB(O)O [Boric acid, boric acid] | inhibited | inhibited | inhibited | fungistatic | effective | 
2 | CC(=O)O [acetic acid] |  |  |  |  |  | Some antifungal effect
